Ten molecules from ChEMBL document CHEMBL1909294, “Translating clinical findings into knowledge in drug safety evaluation--drug induced liver injury prediction system (DILIps)” (PLoS Comput Biol, 2011) can be followed below.

Data set [1] deals with Hepatotoxicity.
The test system of data set [2] is Hepatotoxicity. The source holds these as a separate data set.
The test system of data set [3] is Hepatotoxicity. The source holds these as a separate data set.
For data set [4], the system named is Hepatotoxicity. This is another data set of the same source.
Data set [5] deals with Hepatotoxicity. The source holds these as a separate data set.
In data set [6] the test system is Hepatotoxicity. The source holds these as a separate data set.
Data set [7] relates to Hepatotoxicity. This is another data set of the same source.
Data set [8] deals with Hepatotoxicity. This is another data set of the same source.
For data set [9], the system named is Hepatotoxicity. The source holds these as a separate data set.
The test system of data set [10] is Hepatotoxicity. The source holds these as a separate data set.
In data set [11] the test system is Hepatotoxicity. This is another data set of the same source.
Data set [12] relates to Hepatotoxicity. The source holds these as a separate data set.
Data set [13] relates to Hepatotoxicity. The source holds these as a separate data set.
The test system of data set [14] is Hepatotoxicity. The source holds these as a separate data set.
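Throughout, for HepSE Combined Scores: combined hepatic side effect score as listed in the training data of the Drug Induced Liver Injury Prediction System (DILIps).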
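Throughout, for HepSE bilirubinemia: bilirubinemia hepatic side effect score drawn from the DILIps training data, a prediction system for drug-induced liver injury; call rule not given here.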
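Throughout, for HepSE cholecystitis: Cholecystitis-related hepatic side effect score drawn from the DILIps (drug-induced liver injury prediction) training data set; call rule not given here.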
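Throughout, for HepSE cholelithiasis: hepatic side effect score for cholelithiasis, drawn from the DILIps training data for predicting drug-induced liver injury; call rule not given here.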
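Throughout, for HepSE cirrhosis: cirrhosis hepatic side effect score taken from the DILIps (drug-induced liver injury prediction) training set; call rule not given here.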
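Throughout, for HepSE elevated liver function tests: hepatic side effect score for raised liver function tests, as recorded in the DILIps training set used for predicting drug-induced liver injury.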
Throughout, for HepSE hepatic failure: call rule not given here.
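Throughout, for HepSE hepatic necrosis: score of hepatic side effects for hepatic necrosis, drawn from the training data of DILIps, a prediction system for drug-induced liver injury; call rule not given here.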
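Throughout, for HepSE hepatitis: Hepatitis-related hepatic side effect score taken from the training data of DILIps, a prediction system for drug-induced liver injury; call rule not given here.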
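Throughout, for HepSE hepatomegaly: hepatic side effect score for hepatomegaly, taken from the training set of the DILIps drug-induced liver injury prediction system; call rule not given here.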
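Throughout, for HepSE jaundice: Jaundice-related hepatic side-effect score drawn from the training data of the DILIps (drug-induced liver injury prediction system); call rule not given here.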
Throughout, for HepSE liver disease: call rule not given here.
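Throughout, for HepSE liver fatty: hepatic side effect score for fatty liver, taken from the DILIps training set for predicting drug-induced liver injury; call rule not given here.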
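Throughout, for HepSE liver function tests abnormal: hepatic side effect score taken from the DILIps (drug-induced liver injury prediction system) training data, here covering abnormal liver function test findings.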

In [1], `CNC1(c2ccccc2Cl)CCCCC1=O` (stereo not given) [KETAMINE] came in with a HepSE_bilirubinemia of 0. This molecule returned a HepSE_cholecystitis in data set [2] of 0. For the same molecule, the HepSE_cholelithiasis in data set [3] is 0. The molecule further returned a HepSE_cirrhosis in [4] of 0. Also, in [5], the “HepSE_elevated liver function tests” value worked out at 0. The molecule also returned a HepSE_hepatic failure in [6] of 0. Further, the HepSE_hepatic necrosis in [7] turned out to be 0. The molecule also came in with a HepSE_hepatitis in data set [8] of 0. For the same molecule, the HepSE_hepatomegaly in data set [9] stood at 0. The molecule also registered a HepSE_jaundice in data set [10] of 0. Moreover, the HepSE_liver disease in data set [11] is 0. The HepSE_liver fatty in data set [12] was 0. Further, the “HepSE_liver function tests abnormal” value in data set [13] was 0. Also, the “HepSE_Combined Scores” value in data set [14] was 0.
In turn, `CCCC(=O)Nc1ccc(OCC(O)CNC(C)C)c(C(C)=O)c1` (stereo not given) [ACEBUTOLOL] had a HepSE_bilirubinemia in [1] of 0. Moreover, in data set [2], the HepSE_cholecystitis turned out to be 0. Moreover, in data set [3], the HepSE_cholelithiasis was determined as 0. The HepSE_cirrhosis in data set [4] stood at 0. Also, the “HepSE_elevated liver function tests” value in [5] stood at 0. Besides, the HepSE_hepatic failure in [6] turned out to be 0. The molecule also showed a HepSE_hepatic necrosis in data set [7] of 0. The molecule also registered a HepSE_hepatitis in data set [8] of 0. Besides, the HepSE_hepatomegaly in [9] is reported as 0. In addition, the HepSE_jaundice in data set [10] is 0. In data set [11], this molecule yielded a HepSE_liver disease of 0. In data set [12], this molecule gave a HepSE_liver fatty of 0. Further, the “HepSE_liver function tests abnormal” value in data set [13] was 0. Further, the “HepSE_Combined Scores” value in data set [14] came to 0.
In data set [1] (Liver), `NC(N)=Nc1nc(CSCCC(N)=NS(N)(=O)=O)cs1` [FAMOTIDINE] gave a HepSE_bilirubinemia of 0. Also, in [2] (Liver), the HepSE_cholecystitis amounted to 0. This molecule came in with a HepSE_cholelithiasis in data set [3] (Liver) of 0. In data set [4] (Liver), this molecule showed a HepSE_cirrhosis of 0. The “HepSE_elevated liver function tests” value in data set [5] (Liver) stood at 0. The molecule further showed a HepSE_hepatic failure in data set [6] (Liver) of 0. This molecule returned a HepSE_hepatic necrosis in [7] (Liver) of 0. Further, the HepSE_hepatitis in [8] (Liver) worked out at 0. In [9] (Liver), the HepSE_hepatomegaly stood at 0. Besides, the HepSE_jaundice in data set [10] (Liver) came out at 1. For the same molecule, in data set [11] (Liver), the HepSE_liver disease worked out at 0. In data set [12] (Liver), this molecule displayed a HepSE_liver fatty of 0. Also, the “HepSE_liver function tests abnormal” value in data set [13] (Liver) came out at 0. The “HepSE_Combined Scores” value in data set [14] (Liver) is recorded as 1.
In data set [1], `CCN[C@H]1CN(CCCOC)S(=O)(=O)c2sc(S(N)(=O)=O)cc21` [BRINZOLAMIDE] returned a HepSE_bilirubinemia of 0. The molecule also displayed a HepSE_cholecystitis in data set [2] of 0. In data set [3], this molecule had a HepSE_cholelithiasis of 0. The molecule also had a HepSE_cirrhosis in data set [4] of 0. For the same molecule, the “HepSE_elevated liver function tests” value in data set [5] was 0. Also, the HepSE_hepatic failure in data set [6] is given as 0. In [7], this molecule gave a HepSE_hepatic necrosis of 0. The molecule also gave a HepSE_hepatitis in data set [8] of 0. The HepSE_hepatomegaly in data set [9] amounted to 0. In data set [10], this molecule registered a HepSE_jaundice of 0. For the same molecule, in [11], the HepSE_liver disease was 0. Also, the HepSE_liver fatty in [12] came out at 0. In data set [13], the “HepSE_liver function tests abnormal” value came out at 0. Besides, the “HepSE_Combined Scores” value in data set [14] was 0.
`COc1ccc(C[C@@H]2c3cc(OC)c(OC)cc3CC[N@+]2(C)CCC(=O)OCCCCCOC(=O)CC[N@@+]2(C)CCc3cc(OC)c(OC)cc3[C@H]2Cc2ccc(OC)c(OC)c2)cc1OC` yielded a HepSE_bilirubinemia in [1] of 0. The molecule further displayed a HepSE_cholecystitis in [2] of 0. The molecule also yielded a HepSE_cholelithiasis in data set [3] of 0. This molecule had a HepSE_cirrhosis in data set [4] of 0. For the same molecule, in data set [5], the “HepSE_elevated liver function tests” value turned out to be 0. This molecule had a HepSE_hepatic failure in data set [6] of 0. The HepSE_hepatic necrosis in data set [7] is 0. The HepSE_hepatitis in data set [8] worked out at 0. The molecule further returned a HepSE_hepatomegaly in data set [9] of 0. The same molecule registered a HepSE_jaundice in data set [10] of 0. This molecule also showed a HepSE_liver disease in [11] of 0. This molecule displayed a HepSE_liver fatty in data set [12] of 0. The “HepSE_liver function tests abnormal” value in data set [13] is given as 0. The “HepSE_Combined Scores” value in data set [14] was 0.
As to `CC(O)(P(=O)(O)O)P(=O)(O)O` [ETIDRONIC ACID], the HepSE_bilirubinemia in [1] was 0. In addition, in data set [2], the HepSE_cholecystitis worked out at 0. This molecule yielded a HepSE_cholelithiasis in data set [3] of 0. This molecule displayed a HepSE_cirrhosis in [4] of 0. Besides, the “HepSE_elevated liver function tests” value in data set [5] came out at 0. In data set [6], this molecule returned a HepSE_hepatic failure of 0. The same molecule returned a HepSE_hepatic necrosis in data set [7] of 0. The HepSE_hepatitis in [8] stood at 0. Moreover, the HepSE_hepatomegaly in [9] is on record as 0. This molecule also yielded a HepSE_jaundice in [10] of 0. Besides, in data set [11], the HepSE_liver disease came out at 0. In [12], the HepSE_liver fatty amounted to 0. In addition, in data set [13], the “HepSE_liver function tests abnormal” value is 0. Also, the “HepSE_Combined Scores” value in data set [14] amounted to 0.
The molecule `CCCC(C)C1(CC)C(=O)NC(=O)NC1=O` (stereo not given) [PENTOBARBITAL] came in with a HepSE_bilirubinemia in [1] of 0. The molecule also displayed a HepSE_cholecystitis in data set [2] of 0. The molecule further yielded a HepSE_cholelithiasis in data set [3] of 0. This molecule also returned a HepSE_cirrhosis in [4] of 0. The “HepSE_elevated liver function tests” value in data set [5] was 0. The HepSE_hepatic failure in data set [6] worked out at 0. This molecule also displayed a HepSE_hepatic necrosis in data set [7] of 0. The same molecule displayed a HepSE_hepatitis in data set [8] of 0. Moreover, in data set [9], the HepSE_hepatomegaly worked out at 0. This molecule returned a HepSE_jaundice in data set [10] of 0. In data set [11], the HepSE_liver disease is 0. For the same molecule, the HepSE_liver fatty in data set [12] is 0. Moreover, the “HepSE_liver function tests abnormal” value in data set [13] came to 0. In addition, the “HepSE_Combined Scores” value in data set [14] came to 0.
Take `CC1Cc2ccccc2N1NC(=O)c1ccc(Cl)c(S(N)(=O)=O)c1` (stereo not given) [INDAPAMIDE]: the HepSE_bilirubinemia in [1] came to 0. In addition, the HepSE_cholecystitis in data set [2] is given as 0. Also, the HepSE_cholelithiasis in data set [3] is given as 0. Also, in [4], the HepSE_cirrhosis is on record as 0. In addition, in data set [5], the “HepSE_elevated liver function tests” value is reported as 0. Also, the HepSE_hepatic failure in data set [6] was found to be 0. This molecule also yielded a HepSE_hepatic necrosis in data set [7] of 0. The same molecule gave a HepSE_hepatitis in [8] of 1. This molecule had a HepSE_hepatomegaly in [9] of 0. In data set [10], this molecule displayed a HepSE_jaundice of 1. In data set [11], this molecule registered a HepSE_liver disease of 0. This molecule displayed a HepSE_liver fatty in [12] of 0. In addition, in data set [13], the “HepSE_liver function tests abnormal” value amounted to 1. Moreover, the “HepSE_Combined Scores” value in data set [14] is given as 3.
For the molecule `CCCc1nc(C(C)(C)O)c(C(=O)OCc2oc(=O)oc2C)n1Cc1ccc(-c2ccccc2-c2nnn[nH]2)cc1` [OLMESARTAN MEDOXOMIL], the HepSE_bilirubinemia in [1] came to 0. This molecule also displayed a HepSE_cholecystitis in data set [2] of 0. For the same molecule, the HepSE_cholelithiasis in [3] is recorded as 0. This molecule showed a HepSE_cirrhosis in data set [4] of 0. In addition, the “HepSE_elevated liver function tests” value in [5] worked out at 0. Besides, the HepSE_hepatic failure in [6] was 0. For the same molecule, the HepSE_hepatic necrosis in [7] stood at 0. This molecule also had a HepSE_hepatitis in [8] of 0. The molecule also showed a HepSE_hepatomegaly in [9] of 0. In [10], the HepSE_jaundice turned out to be 1. The HepSE_liver disease in data set [11] worked out at 0. The HepSE_liver fatty in data set [12] was determined as 0. In addition, in data set [13], the “HepSE_liver function tests abnormal” value came out at 0. For the same molecule, the “HepSE_Combined Scores” value in [14] turned out to be 1.
Consider `Nc1cc(N2CCCCC2)nc(N)[n+]1[O-]` [MINOXIDIL], for which the HepSE_bilirubinemia in [1] came out at 0. For the same molecule, in data set [2], the HepSE_cholecystitis is recorded as 0. In data set [3], this molecule yielded a HepSE_cholelithiasis of 0. Further, in [4], the HepSE_cirrhosis came out at 0. Besides, in data set [5], the “HepSE_elevated liver function tests” value is 0. The molecule further displayed a HepSE_hepatic failure in data set [6] of 0. In data set [7], this molecule came in with a HepSE_hepatic necrosis of 0. This molecule also had a HepSE_hepatitis in [8] of 0. The molecule also registered a HepSE_hepatomegaly in data set [9] of 0. The same molecule yielded a HepSE_jaundice in data set [10] of 0. In data set [11], the HepSE_liver disease worked out at 0. In addition, the HepSE_liver fatty in [12] is 0. For the same molecule, the “HepSE_liver function tests abnormal” value in data set [13] worked out at 0. Moreover, in data set [14], the “HepSE_Combined Scores” value is 0.
